Assay results reported in EP4722207A1, “OXOISOINDOLINYL-SUBSTITUTED TETRAHYDROPYRIMIDINEDIONE DERIVATIVE AND USE THEREOF” (Gluetacs Therapeutics (Shanghai) Co., Ltd., priority 2023, dated 2024).

What was measured:
Format in all cases: cell-based
Conditions in all cases: 24 hours of compound treatment, 50 nM and 500 nM
CK1α = target: T1, CK1α (Homo sapiens, UniProt P48729+Q96SW2); assay: Western-blot assay, substrate protein degradation in hPBMCs: CK1α
T1 construct: effects of the compounds of the present disclosure on the expression of target proteins in cells; endogenous in cells; host or cells: human PBMCs (hPBMCs)

WEE1 = target: T2, WEE1 (Homo sapiens, UniProt P30291+Q96SW2); assay: Western-blot assay, substrate protein degradation in hPBMCs: WEE1
T2 construct: effects of the compounds of the present disclosure on the expression of target proteins in cells; endogenous in cells; host or cells: human PBMCs (hPBMCs)

GSPT1 = target: T3, GSPT1 (Homo sapiens, UniProt P15170+Q96SW2); assay: Western-blot assay, substrate protein degradation in hPBMCs: GSPT1
T3 construct: effects of the compounds of the present disclosure on the expression of target proteins in cells; endogenous in cells; host or cells: human PBMCs (hPBMCs)

IKZF1 = target: T4, IKZF1 (Homo sapiens, UniProt Q13422+Q96SW2); assay: Western-blot assay, substrate protein degradation in hPBMCs: IKZF1
T4 construct: effects of the compounds of the present disclosure on the expression of target proteins in cells; endogenous in cells; host or cells: human PBMCs (hPBMCs)

IKZF3 = target: T5, IKZF3 (Homo sapiens, UniProt Q96SW2+Q9UKT9); assay: Western-blot assay, substrate protein degradation in hPBMCs: IKZF3
T5 construct: effects of the compounds of the present disclosure on the expression of target proteins in cells; endogenous in cells; host or cells: human PBMCs (hPBMCs)

IKZF2 = target: T6, IKZF2 (Homo sapiens, UniProt Q96SW2+Q9UKS7); assay: Western-blot assay, substrate protein degradation in hPBMCs: IKZF2
T6 construct: effects of the compounds of the present disclosure on the expression of target proteins in cells; endogenous in cells; host or cells: human PBMCs (hPBMCs)
T6 sequence (Q9UKS7 whole entry): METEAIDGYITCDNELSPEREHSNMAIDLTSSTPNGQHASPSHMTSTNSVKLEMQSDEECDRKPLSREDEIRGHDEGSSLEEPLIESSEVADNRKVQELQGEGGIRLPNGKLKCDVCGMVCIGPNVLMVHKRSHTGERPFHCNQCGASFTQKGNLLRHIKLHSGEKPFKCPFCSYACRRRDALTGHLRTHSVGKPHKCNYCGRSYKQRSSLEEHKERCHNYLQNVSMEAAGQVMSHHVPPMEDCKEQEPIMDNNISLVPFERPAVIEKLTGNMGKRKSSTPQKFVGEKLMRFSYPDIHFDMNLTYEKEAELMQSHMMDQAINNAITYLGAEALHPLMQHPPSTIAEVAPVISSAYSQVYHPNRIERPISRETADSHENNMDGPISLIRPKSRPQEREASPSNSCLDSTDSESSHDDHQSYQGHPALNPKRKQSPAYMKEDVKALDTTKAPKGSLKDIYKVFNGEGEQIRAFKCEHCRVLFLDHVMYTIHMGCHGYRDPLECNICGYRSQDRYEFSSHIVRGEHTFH
T6 sequence (Q96SW2 whole entry): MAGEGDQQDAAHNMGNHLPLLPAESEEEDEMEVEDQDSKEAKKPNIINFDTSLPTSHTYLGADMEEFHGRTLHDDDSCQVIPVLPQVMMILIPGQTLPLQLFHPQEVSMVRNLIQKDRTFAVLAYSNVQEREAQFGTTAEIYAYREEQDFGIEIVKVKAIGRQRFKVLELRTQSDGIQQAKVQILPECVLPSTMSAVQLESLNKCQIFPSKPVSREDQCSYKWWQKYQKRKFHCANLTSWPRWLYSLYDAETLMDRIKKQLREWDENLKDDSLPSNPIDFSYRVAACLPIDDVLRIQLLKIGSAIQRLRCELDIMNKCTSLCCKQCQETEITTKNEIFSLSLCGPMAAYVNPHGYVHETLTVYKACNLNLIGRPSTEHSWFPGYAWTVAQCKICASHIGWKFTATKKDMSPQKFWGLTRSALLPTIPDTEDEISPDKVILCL
T6 sequence (Q16531 whole entry partner): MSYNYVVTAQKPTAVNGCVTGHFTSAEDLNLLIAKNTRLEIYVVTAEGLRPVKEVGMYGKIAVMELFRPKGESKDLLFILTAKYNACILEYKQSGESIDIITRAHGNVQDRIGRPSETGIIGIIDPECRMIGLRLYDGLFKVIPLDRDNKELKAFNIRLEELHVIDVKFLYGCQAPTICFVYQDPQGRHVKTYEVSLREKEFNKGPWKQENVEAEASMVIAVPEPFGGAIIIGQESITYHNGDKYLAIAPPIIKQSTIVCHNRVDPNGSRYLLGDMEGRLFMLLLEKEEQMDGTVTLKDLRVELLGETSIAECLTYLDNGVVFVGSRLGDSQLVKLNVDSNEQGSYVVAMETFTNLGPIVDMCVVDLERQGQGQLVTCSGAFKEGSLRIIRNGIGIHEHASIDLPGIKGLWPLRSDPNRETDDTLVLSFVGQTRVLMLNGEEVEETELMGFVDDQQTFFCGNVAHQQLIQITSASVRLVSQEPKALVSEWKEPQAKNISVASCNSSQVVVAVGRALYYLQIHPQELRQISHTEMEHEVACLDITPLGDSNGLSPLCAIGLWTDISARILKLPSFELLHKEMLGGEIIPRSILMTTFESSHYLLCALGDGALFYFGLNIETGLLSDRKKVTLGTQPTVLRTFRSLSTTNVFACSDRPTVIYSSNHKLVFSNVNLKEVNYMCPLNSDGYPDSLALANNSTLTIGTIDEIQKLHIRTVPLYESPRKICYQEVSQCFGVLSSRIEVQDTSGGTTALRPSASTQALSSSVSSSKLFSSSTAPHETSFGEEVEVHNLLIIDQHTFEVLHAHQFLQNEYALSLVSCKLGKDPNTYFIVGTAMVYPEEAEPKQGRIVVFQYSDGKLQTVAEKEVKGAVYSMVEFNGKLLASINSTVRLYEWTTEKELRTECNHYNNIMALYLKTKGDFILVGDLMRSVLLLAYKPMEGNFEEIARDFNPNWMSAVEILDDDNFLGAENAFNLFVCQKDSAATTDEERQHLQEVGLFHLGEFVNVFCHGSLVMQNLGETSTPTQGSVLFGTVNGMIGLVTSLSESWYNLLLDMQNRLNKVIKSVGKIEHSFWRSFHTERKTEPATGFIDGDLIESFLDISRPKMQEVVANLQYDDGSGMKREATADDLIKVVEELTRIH

T2 sequence (P30291 whole entry): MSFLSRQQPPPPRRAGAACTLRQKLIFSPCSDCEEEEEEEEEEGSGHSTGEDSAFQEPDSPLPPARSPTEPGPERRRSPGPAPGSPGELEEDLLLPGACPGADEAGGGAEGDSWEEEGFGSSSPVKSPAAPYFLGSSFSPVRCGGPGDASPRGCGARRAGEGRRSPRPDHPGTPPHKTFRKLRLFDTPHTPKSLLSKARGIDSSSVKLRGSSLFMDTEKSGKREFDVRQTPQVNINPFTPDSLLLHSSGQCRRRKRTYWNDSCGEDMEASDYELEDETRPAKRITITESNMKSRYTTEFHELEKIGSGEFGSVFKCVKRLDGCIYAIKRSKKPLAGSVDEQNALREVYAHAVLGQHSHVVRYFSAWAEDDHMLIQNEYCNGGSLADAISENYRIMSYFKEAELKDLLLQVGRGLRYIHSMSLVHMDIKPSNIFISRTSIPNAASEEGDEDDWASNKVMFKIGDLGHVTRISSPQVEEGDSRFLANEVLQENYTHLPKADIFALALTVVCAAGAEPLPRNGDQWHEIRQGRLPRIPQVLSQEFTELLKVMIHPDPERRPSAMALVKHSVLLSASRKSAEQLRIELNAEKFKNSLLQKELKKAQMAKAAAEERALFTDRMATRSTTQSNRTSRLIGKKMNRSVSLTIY
T2 sequence (Q96SW2 whole entry): as the sequence (Q96SW2 whole entry) above
T2 sequence (Q16531 whole entry partner): as the sequence (Q16531 whole entry partner) above
T3 sequence (P15170 whole entry): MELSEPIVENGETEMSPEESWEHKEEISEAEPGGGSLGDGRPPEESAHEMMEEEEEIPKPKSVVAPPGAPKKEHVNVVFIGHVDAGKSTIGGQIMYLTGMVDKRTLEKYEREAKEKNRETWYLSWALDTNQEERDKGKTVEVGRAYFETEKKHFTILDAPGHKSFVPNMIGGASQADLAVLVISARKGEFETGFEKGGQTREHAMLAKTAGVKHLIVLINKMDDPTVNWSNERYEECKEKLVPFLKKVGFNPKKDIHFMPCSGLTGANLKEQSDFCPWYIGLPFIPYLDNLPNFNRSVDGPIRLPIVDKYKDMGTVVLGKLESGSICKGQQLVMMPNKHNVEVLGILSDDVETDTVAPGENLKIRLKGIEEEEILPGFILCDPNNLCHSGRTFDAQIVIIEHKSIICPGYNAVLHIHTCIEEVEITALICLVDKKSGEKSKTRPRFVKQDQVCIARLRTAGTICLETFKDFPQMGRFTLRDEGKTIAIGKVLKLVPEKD
T3 sequence (Q96SW2 whole entry): as the sequence (Q96SW2 whole entry) above
T3 sequence (Q16531 whole entry partner): as the sequence (Q16531 whole entry partner) above
T1 sequence (P48729 whole entry): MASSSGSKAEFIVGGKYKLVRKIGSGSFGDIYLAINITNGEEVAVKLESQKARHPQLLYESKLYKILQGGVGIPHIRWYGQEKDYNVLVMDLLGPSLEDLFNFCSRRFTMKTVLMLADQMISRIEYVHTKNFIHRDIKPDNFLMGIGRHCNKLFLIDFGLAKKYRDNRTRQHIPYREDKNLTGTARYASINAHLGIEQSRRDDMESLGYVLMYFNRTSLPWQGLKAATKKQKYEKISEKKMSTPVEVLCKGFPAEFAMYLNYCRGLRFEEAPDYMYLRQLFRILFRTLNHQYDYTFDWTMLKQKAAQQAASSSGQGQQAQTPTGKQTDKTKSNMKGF
T1 sequence (Q96SW2 whole entry): as the sequence (Q96SW2 whole entry) above
T1 sequence (Q16531 whole entry partner): as the sequence (Q16531 whole entry partner) above
T5 sequence (Q9UKT9 whole entry): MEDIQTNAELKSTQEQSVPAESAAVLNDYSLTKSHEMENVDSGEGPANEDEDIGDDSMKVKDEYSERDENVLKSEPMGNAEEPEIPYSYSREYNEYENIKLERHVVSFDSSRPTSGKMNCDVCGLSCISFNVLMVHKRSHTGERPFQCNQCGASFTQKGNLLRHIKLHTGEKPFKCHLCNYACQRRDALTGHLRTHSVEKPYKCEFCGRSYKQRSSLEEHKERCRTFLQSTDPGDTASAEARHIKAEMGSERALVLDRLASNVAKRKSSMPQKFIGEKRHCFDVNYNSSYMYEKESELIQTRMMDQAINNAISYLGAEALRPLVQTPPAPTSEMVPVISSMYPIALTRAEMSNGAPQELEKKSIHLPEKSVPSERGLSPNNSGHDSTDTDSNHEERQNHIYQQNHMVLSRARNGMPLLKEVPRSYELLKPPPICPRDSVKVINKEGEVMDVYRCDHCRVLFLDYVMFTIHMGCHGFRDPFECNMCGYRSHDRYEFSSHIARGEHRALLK
T5 sequence (Q96SW2 whole entry): as the sequence (Q96SW2 whole entry) above
T5 sequence (Q16531 whole entry partner): as the sequence (Q16531 whole entry partner) above

Structure (SMILES)	substrate protein remaining % CK1α (CK1α)	substrate protein remaining % WEE1 (WEE1)	substrate protein remaining % GSPT1 (GSPT1)	substrate protein remaining % IKZF1 (IKZF1)	substrate protein remaining % IKZF3 (IKZF3)	substrate protein remaining % IKZF2 (IKZF2)
CC1(C)CCC(CN2CC3CCC2CN3Cc2ccc3c(c2)CN(N2CCC(=O)NC2=O)C3=O)=C(c2ccc(Cl)cc2)C1 (stereo not drawn) [GT-07331, 1-(5-((5-((4'-chloro-5,5-dimethyl-3,4,5,6-tetrahydro-[1,1'-biphenyl]-2-yl)methyl)-2,5-diazabicyclo[2.2.2]octan-2-yl)methyl)-1-oxoisoindolin-2-yl)dihydropyrimidine-2,4(1H,3H)-dione]	A (0% ≤ substrate protein remaining % ≤ 80%)	A (0% ≤ substrate protein remaining % ≤ 80%)	A (0% ≤ substrate protein remaining % ≤ 80%)	A (0% ≤ substrate protein remaining % ≤ 80%)	A (0% ≤ substrate protein remaining % ≤ 80%)	B (80%< substrate protein remaining %≤ 100%)
CC1(C)CC(c2ccc(Cl)cc2)=C(CN2CCN(Cc3ccc4c(c3)CN(N3CCC(=O)NC3=O)C4=O)CC2)CO1 [GT-07332, 1-(5-((4-((4-(4-chlorophenyl)-6,6-dimethyl-5,6-dihydro-2H-pyran-3-yl)methyl)piperazin-1-yl)methyl)-1-oxoisoindolin-2-yl)dihydropyrimidine-2,4(1H,3H)-dione]	B (80%< substrate protein remaining %≤ 100%)	A (0% ≤ substrate protein remaining % ≤ 80%)	A (0% ≤ substrate protein remaining % ≤ 80%)	A (0% ≤ substrate protein remaining % ≤ 80%)	A (0% ≤ substrate protein remaining % ≤ 80%)	B (80%< substrate protein remaining %≤ 100%)
CC1(C)CCC(CN2CC3CCC(C2)N3Cc2ccc3c(c2)C(=O)N(N2CCC(=O)NC2=O)C3=O)=C(c2ccc(Cl)cc2)C1 [GT-07333, 5-((3-((4'-chloro-5,5-dimethyl-3,4,5,6-tetrahydro-[1,1'-biphenyl]-2-yl)methyl)-3,8-diazabicyclo[3.2.1]octan-8-yl)methyl)-2-(2,4-dioxotetrahydropyrimidin-1(2H)-yl)isoindoline-1,3-dione]	B (80%< substrate protein remaining %≤ 100%)	B (80%< substrate protein remaining %≤ 100%)	A (0% ≤ substrate protein remaining % ≤ 80%)	B (80%< substrate protein remaining %≤ 100%)	B (80%< substrate protein remaining %≤ 100%)	B (80%< substrate protein remaining %≤ 100%)
CC1(C)CCC(CN2CC3CC2CN3Cc2ccc3c(c2)C(=O)N(N2CCC(=O)NC2=O)C3=O)=C(c2ccc(Cl)cc2)C1 (stereo not drawn) [GT-07334, 5-((5-((4'-chloro-5,5-dimethyl-3,4,5,6-tetrahydro-[1,1'-biphenyl]-2-yl)methyl)-2,5-diazabicyclo[2.2.1]heptan-2-yl)methyl)-2-(2,4-dioxotetrahydropyrimidin-1(2H)-yl)isoindoline-1,3-dione]	A (0% ≤ substrate protein remaining % ≤ 80%)	A (0% ≤ substrate protein remaining % ≤ 80%)	B (80%< substrate protein remaining %≤ 100%)	B (80%< substrate protein remaining %≤ 100%)	B (80%< substrate protein remaining %≤ 100%)	B (80%< substrate protein remaining %≤ 100%)
Cc1cscc1C1CCN(Cc2ccc3c(c2)CN(N2CCC(=O)NC2=O)C3=O)CC1 [GT-07372, 1-(5-((4-(4-methylthiophen-3-yl)piperidin-1-yl)methyl)-1-oxoisoindolin-2-yl)dihydropyrimidine-2,4(1H,3H)-dione]	B (80%< substrate protein remaining %≤ 100%)	B (80%< substrate protein remaining %≤ 100%)	A (0% ≤ substrate protein remaining % ≤ 80%)	B (80%< substrate protein remaining %≤ 100%)	A (0% ≤ substrate protein remaining % ≤ 80%)	B (80%< substrate protein remaining %≤ 100%)
Cc1cc(C2CCN(Cc3ccc4c(c3)CN(N3CCC(=O)NC3=O)C4=O)CC2)cs1 [GT-07373, 1-(5-((4-(5-methylthiophen-3-yl)piperidin-1-yl)methyl)-1-oxoisoindolin-2-yl)dihydropyrimidine-2,4(1H,3H)-dione]	B (80%< substrate protein remaining %≤ 100%)	B (80%< substrate protein remaining %≤ 100%)	A (0% ≤ substrate protein remaining % ≤ 80%)	B (80%< substrate protein remaining %≤ 100%)	A (0% ≤ substrate protein remaining % ≤ 80%)	B (80%< substrate protein remaining %≤ 100%)
O=C1CCN(N2Cc3cc(CN4CCC(c5ccco5)CC4)ccc3C2=O)C(=O)N1 [GT-07374, 1-(5-((4-(furan-2-yl)piperidin-1-yl)methyl)-1-oxoisoindolin-2-yl)dihydropyrimidine-2,4(1H,3H)-dione]	A (0% ≤ substrate protein remaining % ≤ 80%)	B (80%< substrate protein remaining %≤ 100%)	A (0% ≤ substrate protein remaining % ≤ 80%)	B (80%< substrate protein remaining %≤ 100%)	B (80%< substrate protein remaining %≤ 100%)	B (80%< substrate protein remaining %≤ 100%)
O=C1CCN(N2Cc3cc(CN4CCC(c5ccoc5)CC4)ccc3C2=O)C(=O)N1 [GT-07375, 1-(5-((4-(furan-3-yl)piperidin-1-yl)methyl)-1-oxoisoindolin-2-yl)dihydropyrimidine-2,4(1H,3H)-dione]	A (0% ≤ substrate protein remaining % ≤ 80%)	B (80%< substrate protein remaining %≤ 100%)	A (0% ≤ substrate protein remaining % ≤ 80%)	B (80%< substrate protein remaining %≤ 100%)	B (80%< substrate protein remaining %≤ 100%)	B (80%< substrate protein remaining %≤ 100%)
O=C1CCN(N2Cc3cc(CN4C5CC4CN(C(=O)C4=C(c6ccc(F)cc6)CCCC4)C5)ccc3C2=O)C(=O)N1 [GT-07376, 1-(5-((3-(4'-fluoro-3,4,5,6-tetrahydro-[1,1'-biphenyl]-2-carbonyl)-3,6-diazabicyclo[3.1.1]heptan-6-yl)methyl)-1-oxoisoindolin-2-yl)dihydropyrimidine-2,4(1H,3H)-dione]	B (80%< substrate protein remaining %≤ 100%)	A (0% ≤ substrate protein remaining % ≤ 80%)	B (80%< substrate protein remaining %≤ 100%)	B (80%< substrate protein remaining %≤ 100%)	B (80%< substrate protein remaining %≤ 100%)	B (80%< substrate protein remaining %≤ 100%)
O=C1CCN(N2C(=O)c3ccc(CN4C5CC4CN(C(=O)C4=C(c6ccc(F)cc6)CCCC4)C5)cc3C2=O)C(=O)N1 [GT-07377, 2-(2,4-dioxotetrahydropyrimidin-1(2H)-yl)-5-((3-(4'-fluoro-3,4,5,6-tetrahydro-[1,1'-biphenyl]-2-carbonyl)-3,6-diazabicyclo[3.1.1]heptan-6-yl)methyl)isoindoline-1,3-dione]	A (0% ≤ substrate protein remaining % ≤ 80%)	A (0% ≤ substrate protein remaining % ≤ 80%)	A (0% ≤ substrate protein remaining % ≤ 80%)	B (80%< substrate protein remaining %≤ 100%)	B (80%< substrate protein remaining %≤ 100%)	A (0% ≤ substrate protein remaining % ≤ 80%)
O=C1CCN(N2C(=O)c3ccc(CN4CCC(c5ccsc5)CC4)cc3C2=O)C(=O)N1 [GT-07420, 2-(2,4-dioxotetrahydropyrimidin-1(2H)-yl)-5-((4-(thiophen-3-yl)piperidin-1-yl)methyl)isoindoline-1,3-dione]	A (0% ≤ substrate protein remaining % ≤ 80%)	B (80%< substrate protein remaining %≤ 100%)	A (0% ≤ substrate protein remaining % ≤ 80%)	B (80%< substrate protein remaining %≤ 100%)	B (80%< substrate protein remaining %≤ 100%)	B (80%< substrate protein remaining %≤ 100%)
Cc1cc(C2CCN(Cc3ccc4c(c3)C(=O)N(N3CCC(=O)NC3=O)C4=O)CC2)cs1 [GT-07421, 2-(2,4-dioxotetrahydropyrimidin-1(2H)-yl)-5-((4-(5-methylthiophen-3-yl)piperidin-1-yl)methyl)isoindoline-1,3-dione]	A (0% ≤ substrate protein remaining % ≤ 80%)	B (80%< substrate protein remaining %≤ 100%)	A (0% ≤ substrate protein remaining % ≤ 80%)	B (80%< substrate protein remaining %≤ 100%)	B (80%< substrate protein remaining %≤ 100%)	B (80%< substrate protein remaining %≤ 100%)
